In patent publication US8841321B2, “Quinoline derivatives as antibacterial agents” (Janssen Pharmaceutica NV, priority 2005, dated 2014):
In brackets after ≈: the same amount, converted by molar mass.

Tests used:
[1] = test system: STA 29213 (Staphylococcus aureus (ATCC29213)); assay: Microtitre plate assay, IC90 determination; type: cell-based; details: for IC90 (μg/ml) STA 29213: Staphylococcus aureus (ATCC29213); for IC90: Staphylococcus aureus, ATCC29213, Staphylococcus aureus (ATCC29213), read-out: IC90 (μg/ml) STA 29213
Experimental: (§1) The bacteria used in this study were grown overnight in flasks containing 100 ml Mueller-Hinton Broth (Becton Dickinson—cat. no. 275730) in sterile de-ionized water, with shaking, at 37° C. Stocks (0.5 ml/tube) were stored at −70° C. until use. Bacteria titrations were performed in microtiter plates and colony forming units (CFUs) were determined. In general, an inoculum level of approximately 100 CFUs was used for susceptibility testing.
(§2) Flat-bottom, sterile 96-well plastic microtiter plates were filled with 180 μl of sterile deionized water, supplemented with 0.25% BSA. Subsequently, stock solutions (7.8× final test concentration) of compounds were added in 45 μl volumes in column 2. Serial five-fold dilutions (45 μl in 180 μl) were made directly in the microtiter plates from column 2 to reach column 11. Untreated control samples with (column 1) and without (column 12) inoculum were included in each microtiter plate. Depending on the bacteria type, approximately 10 to 60 CFU per well of bacteria inoculum (100 TCID50), in a volume of 100 μl in 2.8× Mueller-Hinton broth medium, was added to the rows A to H, except column 12. The same volume of broth medium without inoculum was added to column 12 in row A to H. The cultures were incubated at 37° C. for 24 hours under a normal atmosphere (incubator with open air valve and continuous ventilation). At the end of incubation, one day after inoculation, the bacterial growth was quantitated fluorometrically. Therefore resazurin (0.6 mg/ml) was added in a volume of 20 μl to all wells 3 hours after inoculation, and the plates were re-incubated overnight. A change in colour from blue to pink indicated the growth of bacteria. The fluorescence was read in a computer-controlled fluorometer (Cytofluor Biosearch) at an excitation wavelength of 530 nm and an emission wavelength of 590 nm. The % growth inhibition achieved by the compounds was calculated according to standard methods. The IC90 (expressed in μg/ml) was defined as the 90% inhibitory concentration for bacterial growth.

[2] = test system: SPN 6305 (Streptococcus pneumoniae (ATCC6305)); assay: Microtitre plate assay, IC90 determination; type: cell-based; details: for IC90 (μg/ml) SPN 6305: Streptococcus pneumoniae (ATCC6305); for IC90: Streptococcus pneumoniae, ATCC6305, Streptococcus pneumoniae (ATCC6305), read-out: IC90 (μg/ml) SPN 6305
Experimental: as §1, §2

Structure (SMILES) | IC90 (μg/ml) STA 29213 [1] | IC90 (μg/ml) SPN 6305 [2] | IC90 [1] | IC90 [2]
COc1nc2ccc(Br)cc2cc1C(c1ccc(Cl)cc1)C(O)(CCCCN1CCN(C)CC1)CCC1CCCCC1 (single isomer, unassigned) [Compound 174] | 10.41 µg/mL (≈ 15.8 µM) | 8.27 µg/mL (≈ 12.6 µM) | – | –
COc1nc2ccc(Br)cc2cc1C(c1ccccc1)C(O)(CCCCN(C)C)c1ccc2c(c1)OCO2 (centres unmarked) [Compound 10] | – | – | 11.5 µg/mL (≈ 19.9 µM) | 10.3 µg/mL (≈ 17.8 µM)
COc1nc2ccc(Br)cc2cc1C(c1ccccc1)C(O)(CCCCN(C)C)c1cc(F)cc(F)c1 (centres unmarked) [Compound 12] | 45.2 µg/mL (≈ 79.4 µM) | 11.4 µg/mL (≈ 20 µM) | – | –
COc1nc2ccc(Br)cc2cc1C(c1ccccc1)C(O)(CCCCN(C)C)c1cc(F)ccc1F (centres unmarked) [Compound 14] | – | 57.0 µg/mL (≈ 100 µM) | 14.3 µg/mL (≈ 25.1 µM) | –
COc1nc2ccc(Br)cc2cc1C(c1ccccc1)C(O)(CCCCN(C)C)c1cccnc1 (centres unmarked) [Compound 16] | 8.5 µg/mL (≈ 15.9 µM) | 8.5 µg/mL (≈ 15.9 µM) | – | –
COc1nc2ccc(Br)cc2cc1C(c1ccccc1)C(O)(CCCCCN(C)C)c1ccc2ccccc2c1 (centres unmarked) [Compound 58] | 4.2 µg/mL (≈ 7.03 µM) | 1.9 µg/mL (≈ 3.18 µM) | – | –
COc1nc2ccccc2cc1C(c1ccc(Br)cc1)C(O)(CCCCN(C)C)c1ccc2ccccc2c1 (centres unmarked) [Compound 63] | – | – | 1.85 µg/mL (≈ 3.17 µM) | 2.32 µg/mL (≈ 3.98 µM)
COc1nc2ccccc2cc1C(c1ccc(-c2ccccc2)cc1)C(O)(CCCCN(C)C)c1ccc2ccccc2c1 (centres unmarked) [Compound 175] | 1.84 µg/mL (≈ 3.17 µM) | 2.06 µg/mL (≈ 3.55 µM) | – | –
COc1nc2ccccc2cc1C(c1ccc(-c2ccccc2)cc1)C(O)(CCCCN(C)C)c1ccc2ccccc2c1 (centres unmarked) [Compound 176] | 1.84 µg/mL (≈ 3.17 µM) | 2.06 µg/mL (≈ 3.55 µM) | – | –
CN(C)CCCCC(O)(c1ccc2ccccc2c1)C(c1ccccc1)c1cc2cc(Br)ccc2nc1N1CCOCC1 (centres unmarked) [Compound 177] | 4.52 µg/mL (≈ 7.08 µM) | 4.52 µg/mL (≈ 7.08 µM) | – | –
CN(C)CCCCC(O)(c1ccc2ccccc2c1)C(c1ccccc1)c1cc2cc(Br)ccc2nc1N1CCOCC1 (centres unmarked) [Compound 178] | 2.02 µg/mL (≈ 3.16 µM) | – | – | 2.27 µg/mL (≈ 3.55 µM)

The remaining lines, values ahead:

IC90 (μg/ml) STA 29213 [1] | IC90 (μg/ml) SPN 6305 [2] | IC90 [1] | IC90 [2] | Structure (SMILES)
3.81 µg/mL (≈ 6.31 µM) | 1.91 µg/mL (≈ 3.16 µM) | – | – | COc1ccc(C(c2cc3cc(Br)ccc3nc2OC)C(O)(CCCCN2CCCCC2)c2ccccc2)cc1 (single isomer, unassigned) [Compound 165]
1.91 µg/mL (≈ 3.16 µM) | 1.91 µg/mL (≈ 3.16 µM) | – | – | COc1ccc(C(c2cc3cc(Br)ccc3nc2OC)C(O)(CCCCN2CCCCC2)c2ccccc2)cc1 (single isomer, unassigned) [Compound 166]
1.95 µg/mL (≈ 3.16 µM) | 2.19 µg/mL (≈ 3.55 µM) | – | – | COc1ccc(C(c2cc3cc(Br)ccc3nc2OC)C(O)(CCCCN2CCCCC2)c2ccc(C)cc2)cc1 (single isomer, unassigned) [Compound 167]
4 µg/mL (≈ 6.31 µM) | 2.52 µg/mL (≈ 3.98 µM) | – | – | COc1ccc(C(c2cc3cc(Br)ccc3nc2OC)C(O)(CCCCN2CCCCC2)c2ccc(OC)cc2)cc1 (single isomer, unassigned) [Compound 169]
22.07 µg/mL (≈ 35.5 µM) | 4.94 µg/mL (≈ 7.94 µM) | – | – | COc1nc2ccc(Br)cc2cc1C(c1ccc(Cl)cc1)C(O)(CCCCN1CCCCC1)c1ccc(C)cc1 (single isomer, unassigned) [Compound 171]
2.03 µg/mL (≈ 3.16 µM) | 2.28 µg/mL (≈ 3.55 µM) | – | – | COc1nc2ccc(Br)cc2cc1C(c1ccc(Cl)c(Cl)c1)C(O)(CCCCN1CCCCC1)c1ccccc1 (single isomer, unassigned) [Compound 172]
1.85 µg/mL (≈ 3.17 µM) | 2.32 µg/mL (≈ 3.98 µM) | – | – | COc1nc2ccccc2cc1C(c1ccc(Br)cc1)C(O)(CCCCN(C)C)c1ccc2ccccc2c1 (centres unmarked) [Compound 65]
1.85 µg/mL (≈ 3.17 µM) | 1.85 µg/mL (≈ 3.17 µM) | – | – | COc1nc2ccccc2cc1C(c1ccc(Br)cc1)C(O)(CCCCN(C)C)c1ccc2ccccc2c1 (centres unmarked) [Compound 66]
